Measurements reported in patent US20260317364A1, “ACTIVE MACROLIDE ANTIBIOTIC COMPOUNDS AGAINST PATHOGENS” (priority 2023, published 2026).

How the values were obtained:
[1] = tested on: panel of bacterial isolates, including macrolide-resistant strains; assay: Antibacterial activity against panel of bacterial isolates (MIC); assay type: cell-based; conditions: comparison with other compounds of the series or reference macrolides
Protocol: Acylides 2-24, as well as carbamate acylides 29-42, 47-48 and 55 and 56 were tested for antibacterial activity against a panel of bacterial isolates, including macrolide-resistant strains. Furthermore, potential toxicity against human HEK293 and red blood cells was assessed. All compounds were submitted to ComPlat (Karlsruhe Institute of Technology, Germany) for compound management and screening. As reference antibiotics, the macrolide antibiotics clarithromycin (CTY), telithromycin (TEL), solithromycin (SOL), as well as the previously reported acylides TEA0777 and X10324 (See, Wayne, P. C. a. L. S. I., Methods for Dilution Antimicrobial Susceptibility Tests for Bacteria That Grow Aerobically. CLSI document M07. CLSI 2009) were employed. […]
Furthermore, the Gram-negative bacteria E. coli (DSM 30083), Acinetobacter baumannii Bouvet and Grimont 1986 (DSM 30007) and Pseudomonas aeruginosa (DSM 50071) were assayed. […] The MIC values were determined as previously described (See, Wayne, P. C. a. L. S. I., Methods for Dilution Antimicrobial Susceptibility Tests for Bacteria That Grow Aerobically. CLSI document M07. CLSI 2009; Albada, H. B., et al., Modulating the activity of short arginine-tryptophan containing antibacterial peptides with N-terminal metallocenoyl groups. 2012. 8(1): p. 1753-1764).

[2] = tested on: E. coli tolC-deficient (tolC; MB5747); assay: Antibacterial activity against tolC-deficient E. coli; assay type: cell-based

2-desfluoro-solithromycin [Compound 50]
antibacterial activity (in words) [1]: significantly less potent than solithroymcin

CC[C@H]1OC(=O)[C@H](C)[C@@H](O[C@H]2C[C@@](C)(OC)[C@@H](O)[C@H](C)O2)[C@H](C)[C@@H](O[C@@H]2O[C@H](C)C[C@H](N(C)C)[C@H]2O)[C@](C)(OC)C[C@@H](C)C(=O)[C@H](C)[C@@H](O)[C@]1(C)O [clarithromycin]
activity against tolC-deficient E. coli [2]: apart from the clinically used clarithromycin and telithromycin show activity

CC[C@H]1OC(=O)[C@H](C)C(=O)[C@H](C)[C@@H](O[C@@H]2O[C@H](C)C[C@H](N(C)C)[C@H]2O)[C@](C)(OC)C[C@@H](C)C(=O)[C@H](C)[C@H]2N(CCCCn3cnc(-c4cccnc4)c3)C(=O)O[C@]12C [telithromycin]
activity against tolC-deficient E. coli [2]: apart from the clinically used clarithromycin and telithromycin show activity
